The text below walks through data of PubChem BioAssay (NCI).

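Exposure lasted 48 hours, with cells grown in 96-well plates and compounds tested at five concentrations. Abbreviation: GI50, concentration required for 50% inhibition of growth. TGI: total growth inhibition.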

The test system of one assay is MALME-3M melanoma. The assay is described as follows: NCI-60 cell line screen, 48 h.
As for `CC1CCCc2c1nn(C(=O)/C=C(\N)c1ccccc1)c2N` (centres undefined), the GI50 is 9.4 µM and the TGI is above 100 µM.

`CCCCCCCCCCCCCC(=O)OCC1OC(=O)CC1O` (centres undefined) displayed a TGI above 100 µM.

In turn, `Cc1ccc(S(=O)(=O)N/N=C(\c2nc3ccc([N+](=O)[O-])cc3[nH]c2=O)C(O)c2ccccc2Cl)cc1` (centres undefined) registered a TGI above 100 µM.

`COc1ccc(CC(C)C(C)Cc2ccc(OC)c(OC)c2)cc1OC` (centres undefined): the GI50 is above 1400 µM and the TGI was above 1400 µM.

Consider `Cc1ncc(C(=O)Nc2ccc(CN3CCN(C)CC3)c(C(F)(F)F)c2)cc1C#Cc1cnc(NC2CC2)c2ncccc12`, for which the GI50 was 0.57 µM and the TGI came out at 1.15 µM.

For `Cc1ccc2nc3c(Cl)c(C)c(=O)cc-3sc2c1`, the GI50 was 73.8 µM and the TGI is above 100 µM.

In turn, `O=C/C(=C(/Cl)c1ccc(O)cc1)c1ccccc1` registered a TGI of 70.4 µM.

Turning to `CCCCCCCCCCN=C(c1ccc(N(C)C)cc1)c1ccc(N(C)C)cc1`, the GI50 is 16.6 µM and the TGI came to 65.8 µM.

For the molecule `CCCCCCCCCCCCCCCCCCNC(=O)[C@H]1CSC(c2cccs2)N1` (some centres undefined), the GI50 is 0.988 µM and the TGI was found to be 2.01 µM.

Another assay relates to A549 NSCLC. The assay is described as follows: NCI-60 cell line screen, 48 h.
For `CC1CCCc2c1nn(C(=O)/C=C(\N)c1ccccc1)c2N` (centres undefined), the GI50 is 9060 nM and the TGI was above 100 µM.

As to `CCCCCCCCCCCCCC(=O)OCC1OC(=O)CC1O` (centres undefined), the TGI was above 100 µM.

On to `Cc1ccc(S(=O)(=O)N/N=C(\c2nc3ccc([N+](=O)[O-])cc3[nH]c2=O)C(O)c2ccccc2Cl)cc1` (centres undefined), for which the TGI is above 100 µM.

For the molecule `COc1ccc(CC(C)C(C)Cc2ccc(OC)c(OC)c2)cc1OC` (centres undefined), the GI50 is 600000 nM and the TGI was above 1400 µM.

Consider `Cc1ncc(C(=O)Nc2ccc(CN3CCN(C)CC3)c(C(F)(F)F)c2)cc1C#Cc1cnc(NC2CC2)c2ncccc12`, for which the GI50 is 682 nM and the TGI came to 1.33 µM.

The molecule `Cc1ccc2nc3c(Cl)c(C)c(=O)cc-3sc2c1` returned a TGI above 100 µM.

With `O=C/C(=C(/Cl)c1ccc(O)cc1)c1ccccc1`, the TGI was above 84.6 µM.

With `CCCCCCCCCCN=C(c1ccc(N(C)C)cc1)c1ccc(N(C)C)cc1`, the GI50 is 2530 nM and the TGI was above 77.6 µM.

As for `CCCCCCCCCCCCCCCCCCNC(=O)[C@H]1CSC(c2cccs2)N1` (some centres undefined), the GI50 is 1690 nM and the TGI was above 50 µM.

The test system of the next assay is SF-268 CNS. The assay is described as follows: NCI-60 cell line screen, 48 h.
`CC1CCCc2c1nn(C(=O)/C=C(\N)c1ccccc1)c2N` (centres undefined): the GI50 was 9.61 µM and the TGI was above 100 µM.

Molecule `CCCCCCCCCCCCCC(=O)OCC1OC(=O)CC1O` (centres undefined) displayed a TGI above 100 µM.

`Cc1ccc(S(=O)(=O)N/N=C(\c2nc3ccc([N+](=O)[O-])cc3[nH]c2=O)C(O)c2ccccc2Cl)cc1` (centres undefined) yielded a TGI above 100 µM.

For the molecule `COc1ccc(CC(C)C(C)Cc2ccc(OC)c(OC)c2)cc1OC` (centres undefined), the GI50 is above 1400 µM and the TGI is above 1400 µM.

Take `Cc1ncc(C(=O)Nc2ccc(CN3CCN(C)CC3)c(C(F)(F)F)c2)cc1C#Cc1cnc(NC2CC2)c2ncccc12`: the GI50 is 0.755 µM and the TGI came out at 1.48 µM.

With `Cc1ccc2nc3c(Cl)c(C)c(=O)cc-3sc2c1`, the GI50 was 43.6 µM and the TGI is above 100 µM.

In turn, `O=C/C(=C(/Cl)c1ccc(O)cc1)c1ccccc1` gave a TGI of 77.8 µM.

As for `CCCCCCCCCCN=C(c1ccc(N(C)C)cc1)c1ccc(N(C)C)cc1`, the GI50 is 3.4 µM and the TGI came to 67.9 µM.

Regarding `CCCCCCCCCCCCCCCCCCNC(=O)[C@H]1CSC(c2cccs2)N1` (some centres undefined), the GI50 was 1.11 µM and the TGI was 2.34 µM.

The next assay concerns SK-OV-3 ovarian. The assay is described as follows: NCI-60 cell line screen, 48 h.
As for `CC1CCCc2c1nn(C(=O)/C=C(\N)c1ccccc1)c2N` (centres undefined), the GI50 was 14.5 µM and the TGI was above 100 µM.

Consider `CCCCCCCCCCCCCC(=O)OCC1OC(=O)CC1O` (centres undefined), for which the TGI is above 100 µM.

On to `Cc1ccc(S(=O)(=O)N/N=C(\c2nc3ccc([N+](=O)[O-])cc3[nH]c2=O)C(O)c2ccccc2Cl)cc1` (centres undefined), for which the TGI was above 100 µM.

For the molecule `COc1ccc(CC(C)C(C)Cc2ccc(OC)c(OC)c2)cc1OC` (centres undefined), the GI50 was above 1400 µM and the TGI is above 1400 µM.

For `Cc1ncc(C(=O)Nc2ccc(CN3CCN(C)CC3)c(C(F)(F)F)c2)cc1C#Cc1cnc(NC2CC2)c2ncccc12`, the GI50 was 3.39 µM and the TGI was 7.66 µM.

As to `Cc1ccc2nc3c(Cl)c(C)c(=O)cc-3sc2c1`, the GI50 is above 100 µM and the TGI is above 100 µM.

The molecule `O=C/C(=C(/Cl)c1ccc(O)cc1)c1ccccc1` yielded a TGI of 85.8 µM.

Take `CCCCCCCCCCN=C(c1ccc(N(C)C)cc1)c1ccc(N(C)C)cc1`: the GI50 is 1.44 µM and the TGI turned out to be 40.3 µM.

Take `CCCCCCCCCCCCCCCCCCNC(=O)[C@H]1CSC(c2cccs2)N1` (some centres undefined): the GI50 was 4.51 µM and the TGI was 18.3 µM.

The subject of the next assay is NCI-H460 lung. The assay is described as follows: NCI-60 cell line screen, 48 h.
On to `CC1CCCc2c1nn(C(=O)/C=C(\N)c1ccccc1)c2N` (centres undefined), for which the GI50 was 4.23 µM and the TGI is above 100 µM.

In turn, `CCCCCCCCCCCCCC(=O)OCC1OC(=O)CC1O` (centres undefined) returned a TGI above 100 µM.

Regarding `Cc1ccc(S(=O)(=O)N/N=C(\c2nc3ccc([N+](=O)[O-])cc3[nH]c2=O)C(O)c2ccccc2Cl)cc1` (centres undefined), the TGI was above 100 µM.

Turning to `COc1ccc(CC(C)C(C)Cc2ccc(OC)c(OC)c2)cc1OC` (centres undefined), the GI50 is above 1400 µM and the TGI is above 1400 µM.

Take `Cc1ncc(C(=O)Nc2ccc(CN3CCN(C)CC3)c(C(F)(F)F)c2)cc1C#Cc1cnc(NC2CC2)c2ncccc12`: the GI50 was 0.623 µM and the TGI worked out at 1.19 µM.

As for `Cc1ccc2nc3c(Cl)c(C)c(=O)cc-3sc2c1`, the GI50 was 50.3 µM and the TGI was above 100 µM.

In the case of `O=C/C(=C(/Cl)c1ccc(O)cc1)c1ccccc1`, the TGI was above 100 µM.

In the case of `CCCCCCCCCCN=C(c1ccc(N(C)C)cc1)c1ccc(N(C)C)cc1`, the GI50 was 0.437 µM and the TGI came to 24.5 µM.

Consider `CCCCCCCCCCCCCCCCCCNC(=O)[C@H]1CSC(c2cccs2)N1` (some centres undefined), for which the GI50 was 0.754 µM and the TGI amounted to 1.69 µM.
